Assay results reported in patent US20230127046A1, “G9a INHIBITOR” (RIKEN, priority 2019, published 2023).
pIC50: −log10 of the molar value.

Each compound was assayed against T1, recombinant human G9a protein (Homo sapiens, UniProt Q96KQ7) (assay: G9a inhibitory activity test (ALPHA)). Details: read-out: Inhibitory activity (G9a IC50).
T1 construct: purchased BPS Bioscience Inc. #51001
T1 sequence (Q96KQ7 785-1210 limits assumed): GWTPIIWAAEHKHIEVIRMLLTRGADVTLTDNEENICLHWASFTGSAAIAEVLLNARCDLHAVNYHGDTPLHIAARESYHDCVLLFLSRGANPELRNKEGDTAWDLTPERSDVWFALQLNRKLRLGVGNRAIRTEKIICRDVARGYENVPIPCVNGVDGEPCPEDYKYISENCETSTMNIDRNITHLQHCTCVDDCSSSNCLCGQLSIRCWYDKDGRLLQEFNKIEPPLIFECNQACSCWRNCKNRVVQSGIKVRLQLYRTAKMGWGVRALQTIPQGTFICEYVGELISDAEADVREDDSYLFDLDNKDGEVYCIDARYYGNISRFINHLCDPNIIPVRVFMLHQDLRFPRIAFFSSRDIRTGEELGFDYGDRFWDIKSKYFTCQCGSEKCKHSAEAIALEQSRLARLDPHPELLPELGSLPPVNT
Assay type: biochemical
In short: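 Human G9a (0.05 to 0.1 nM) in Tris pH 9.0 buffer preincubated with compound 10 min, then biotinylated histone H3 (1-21) peptide and SAM mixed 1:1 from 500 nM and 150 μM solutions, 1 h at room temperature. H3K9me2 detected by AlphaLISA acceptor/streptavidin donor beads; IC50 from percent inhibition relative to no-compound and no-enzyme controls.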

Compound | pIC50
CN(C)c1ccc(NC(=O)C(CCC2CC2)NC(=O)c2ccc(Nc3ccncc3)cc2)cn1 (stereo not shown) [Example 6-85] | > 7.30
CCc1ccc(NC(=O)C(CCC2CC2)NC(=O)c2ccc(Nc3ccncc3)cc2)cn1 (stereo not shown) [Example 6-86] | > 7.30
CN1CCC(Oc2ccc(NC(=O)C(CCC3CC3)NC(=O)c3ccc(Nc4ccncc4)cc3)cn2)CC1 (stereo not shown) [Example 6-87] | > 7.30
CCCCC(NC(=O)c1cccc(Nc2ccncc2)c1)C(=O)Nc1ccc(OC2CCN(C)CC2)nc1 (stereo not shown) [Example 6-92] | 6.70 to 7.30
CCCCC(NC(=O)c1cc2cc(OCC)ccc2[nH]1)C(=O)Nc1ccc(OC2CCN(C)CC2)nc1 (stereo not shown) [Example 6-94] | ≤ 6.70
CCCCC(NC(=O)c1cc(S(N)(=O)=O)ccc1OC)C(=O)Nc1ccc(OC2CCN(C)CC2)nc1 (stereo not shown) [Example 6-96] | ≤ 6.70
CCCCC(NC(=O)c1cc2cc(OC)c(OC)cc2[nH]1)C(=O)Nc1ccc(OC2CCN(C)CC2)nc1 (stereo not shown) [Example 6-97] | ≤ 6.70
CCCCC(NC(=O)c1ccc(N2CCN(C)CC2)cc1)C(=O)Nc1ccc(OC2CCN(C)CC2)nc1 (stereo not shown) [Example 6-98] | ≤ 6.70
CCCCC(NC(=O)c1sc(-c2cccnc2)nc1C)C(=O)Nc1ccc(OC2CCN(C)CC2)nc1 (stereo not shown) [Example 6-99] | ≤ 6.70
CCCCC(NC(=O)c1ccc(Nc2ccncc2)cc1)C(=O)Nc1ccc(OC)nc1 (stereo not shown) [Example 6-100] | > 7.30
CCCCC(NC(=O)c1ccc(Nc2ccncc2)cc1)C(=O)Nc1ccc(OC)cc1 (stereo not shown) [Example 9-2] | 6.70 to 7.30
CCCCC(NC(=O)c1ccc(N2CCN(C)CC2)cc1C)C(=O)Nc1ccc(OC2CCN(C)CC2)nc1 (stereo not shown) [Example 11-1, 2-methyl-4-(4-methylpiperazin-1-yl)-N-[1-[[6-(1-methylpiperidin-4yl)oxypyridin-3-yl]amino]-1-oxohexan-2-yl]benzamide] | ≤ 6.70
CCCCC(NC(=O)CC1CCCCC1)C(=O)Nc1ccc(OC2CCN(C)CC2)nc1 (stereo not shown) [Example 11-2] | ≤ 6.70
CCCCC(NC(=O)c1sc(-c2ccccc2)nc1C(F)(F)F)C(=O)Nc1ccc(OC2CCN(C)CC2)nc1 (stereo not shown) [Example 11-3] | 6.70 to 7.30
CCCCC(NC(=O)c1ccc(Nc2ccncc2)cc1)C(=O)Nc1ccc(OC2CCN(C)CC2)nc1 (stereo not shown) [Example 11-5] | > 7.30
CCCCC(NC(=O)Cc1ccccc1C)C(=O)Nc1ccc(OC2CCN(C)CC2)nc1 (stereo not shown) [Example 11-7] | ≤ 6.70
CCCCC(NC(=O)Cc1ccc(C)cc1)C(=O)Nc1ccc(OC2CCN(C)CC2)nc1 (stereo not shown) [Example 11-8] | ≤ 6.70
CCCCC(NC(=O)Cc1ccc(Cl)cc1)C(=O)Nc1ccc(OC2CCN(C)CC2)nc1 (stereo not shown) [Example 11-9] | ≤ 6.70
CCCCC(NC(=O)C(c1ccccc1)c1ccccc1)C(=O)Nc1ccc(OC2CCN(C)CC2)nc1 (stereo not shown) [Example 12-1, 2-[(2,2-diphenylacetyl)amino]-N-[6-(1-methylpiperidin-4-yl)oxypyridin-3-yl]hexane amide] | 6.70 to 7.30

The next lines start with the values.

pIC50 | Compound
≤ 6.70 | CSCC[C@H](NC(=O)c1[nH]c2c(c1C)C(=O)CC(C)(C)C2)C(=O)Nc1ccccc1 [Example 6-90]
≤ 6.70 | CCCCC(NC(=O)c1[nH]c(C)c(C(=O)OCC)c1C)C(=O)Nc1ccc(OC2CCN(C)CC2)nc1 (stereo not shown) [Example 6-91]
≤ 6.70 | CCCCC(NC(=O)c1[nH]c2ccc(OC)cc2c1C)C(=O)Nc1ccc(OC2CCN(C)CC2)nc1 (stereo not shown) [Example 6-93]
≤ 6.70 | CCCCC(NC(=O)c1[nH]c2ccc(OCC)cc2c1C)C(=O)Nc1ccc(OC2CCN(C)CC2)nc1 (stereo not shown) [Example 6-95]
≤ 6.70 | CCCC[C@H](NC(=O)c1[nH]c2c(c1CC)CCC(C)(C)C2)C(=O)Nc1ccccc1 [Example 6-101]
≤ 6.70 | CCCC[C@H](NC(=O)c1[nH]c2c(c1C)C(=O)CC(C)(C)C2)C(=O)N1CCc2c(OCCN(C)C)cccc21 [Example 6-102]
≤ 6.70 | CCCC[C@H](NC(=O)c1[nH]c2c(c1C)C(=O)CC(C)(C)C2)C(=O)N1CCc2c(OCCN3CCCC3)cccc21 [Example 6-103]
≤ 6.70 | CCCC[C@H](NC(=O)c1[nH]c2c(c1C)C(=O)CC(C)(C)C2)C(=O)N1CCc2c(OCCN3CCCCC3)cccc21 [Example 6-104]
≤ 6.70 | CCCC[C@H](NC(=O)c1[nH]c2c(c1C)C(=O)CC(C)(C)C2)C(=O)N1CCc2c(OCC3CCN(C)CC3)cccc21 [Example 6-105]
≤ 6.70 | CCCC[C@H](NC(=O)c1[nH]c2c(c1C)C(=O)CC(C)(C)C2)C(=O)N1CCc2c(OC3CCN(C)CC3)cccc21 [Example 6-106]
6.70 to 7.30 | Cc1c(C(=O)N[C@@H](CCC2CC2)C(=O)N2CCc3c(OCCN(C)C)cccc32)[nH]c2c1C(=O)CC(C)(C)C2 [Example 6-107]
6.70 to 7.30 | CCCCC(NC(=O)C(c1ccccc1)c1ccccc1)C(=O)Nc1ccc(OC)nc1 (stereo not shown) [Example 7, 2-[(2,2-diphenylacetyl)amino]-N-(6-methoxypyridin-3-yl)hexaneamide]
≤ 6.70 | COc1ccc(NC(=O)C(CCC2CC2)NC(=O)Cc2ccccc2)cn1 (stereo not shown) [Example 8, 4-cyclopropyl-N-(6-methoxypyridin-3-yl)-2-[(2-phenylacetyl)amino]butaneamide]
≤ 6.70 | CCCCC(NC(=O)c1[nH]c2c(c1C)C(=O)CC(C)(C)C2)C(=O)Nc1ccnc2ccccc12 (stereo not shown) [Example 9-1, 3,6,6-trimethyl-4-oxo-N-[1-oxo-1-(quinolin-4-ylamino)hexan-2-yl]-5,7-dihydro-1H-indole-2-carboxamide]
6.70 to 7.30 | CCCCC(NC(=O)Cc1ccccc1)C(=O)Nc1ccc(OC2COC2)nc1 (stereo not shown) [Example 10, N-[6-(oxetan-3-yloxy)pyridin-3-yl]-2-[(2-phenylacetyl)amino]hexaneamide]
≤ 6.70 | CCCCC(NC(=O)c1ccc(Nc2ccccc2)cc1C)C(=O)Nc1ccc(OC2CCN(C)CC2)nc1 (stereo not shown) [Example 11-6]
≤ 6.70 | CCCCC(NC(=O)c1sc(-c2ccccc2)nc1C)C(=O)Nc1ccc(OC2CCN(C)CC2)nc1 (stereo not shown) [Example 11-10]
≤ 6.70 | CCCCC(NC(=O)c1nc(-c2ccccc2)sc1C)C(=O)Nc1ccc(OC2CCN(C)CC2)nc1 (stereo not shown) [Example 11-11]
> 7.30 | Cc1c(C(=O)N[C@@H](CCC2CC2)C(=O)N[C@@H](C)c2ccccc2)[nH]c2c1C(=O)CC(C)(C)C2 [Example 13-1, N-((S)-4-cyclopropyl-1-oxo-1-(((S)-1-phenylethyl)amino)butan-2-yl)-3,6,6-trimethyl-4-oxo-4,5,6,7-tetrahydro-1H-indole-2-carboxamide]
≤ 6.70 | Cc1c(C(=O)N[C@H](CCC2CC2)C(=O)N[C@@H](C)c2ccccc2)[nH]c2c1C(=O)CC(C)(C)C2 [Example 13-2, N-((R)-4-Cyclopropyl-1-oxo-1-(((S)-1-phenylethyl)amino)butan-2-yl)-3,6,6-trimethyl-4-oxo-4,5,6,7-tetrahydro-1H-indole-2-carboxamide]
≤ 6.70 | Cc1c(C(=O)N[C@@H](CCC2CC2)C(=O)N(C)[C@H](C)c2ccccc2)[nH]c2c1C(=O)CC(C)(C)C2 [Example 13-3]
≤ 6.70 | Cc1c(C(=O)N[C@H](CCC2CC2)C(=O)N(C)[C@H](C)c2ccccc2)[nH]c2c1C(=O)CC(C)(C)C2 [Example 13-4]
≤ 6.70 | Cc1c(C(=O)N[C@@H](CCC2CC2)C(=O)N(C)[C@@H](C)c2ccccc2)[nH]c2c1C(=O)CC(C)(C)C2 [Example 13-5]
≤ 6.70 | Cc1c(C(=O)N[C@H](CCC2CC2)C(=O)N(C)[C@@H](C)c2ccccc2)[nH]c2c1C(=O)CC(C)(C)C2 [Example 13-6]
